Structures are written as SMILES. “Also recorded” adds a separate entry of the source.

Common to all, as to type: cell-based
For one test, the target named is T1, OR10G7 (Homo sapiens, UniProt Q8NGN6, T5S).
T1 construct: expressed in transfected cells
T1 sequence (Q8NGN6 1-311 T5S): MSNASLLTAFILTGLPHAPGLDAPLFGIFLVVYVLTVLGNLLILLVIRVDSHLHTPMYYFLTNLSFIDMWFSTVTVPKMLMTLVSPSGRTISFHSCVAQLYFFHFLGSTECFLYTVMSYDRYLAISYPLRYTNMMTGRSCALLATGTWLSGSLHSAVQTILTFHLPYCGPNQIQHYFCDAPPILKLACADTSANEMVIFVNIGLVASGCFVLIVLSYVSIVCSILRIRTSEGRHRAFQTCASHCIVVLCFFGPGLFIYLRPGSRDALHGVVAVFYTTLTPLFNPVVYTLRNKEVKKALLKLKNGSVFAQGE
In words: Ligand-induced OR-dependent puromycin resistance, OR10G7 cells. The conditions noted are these: HEK293T, pGL4.29-CRE-Puro-Hygro-OR with OR10G7; musk ketone 10 μM, eugenol or isoeugenol 1 μM, ultravanil or vanitrope 100 μM; puromycin 0.015-16 μg/ml; PrestoBlue viability day 4. The protocol:
(§1) Stable clones selected with hygromycin containing a stable insertion of the pGL4.29-CRE-Puro-Hygro-OR construct described in Example 1 with either one of the receptors OR10G7, OR10G9 or OR5AN1 (NCBI Genbank Gene ID 390265, 219870 and 390195) were plated at a density of 3000 cells/per well in 200 μl Dubelcco's Modified Eagle medium (DMEM) in polyethyleneimide-coated, white 96 well microtiter plates with a transparent bottom. After cells were allowed to adhere for 24 h, they were exposed to different odorants (musk ketone at 10 μM, eugenol or isoeugenol at 1 μM, ultravanil or vanitrope at 100 μM). 7 h after odorant addition, 100 μl of the medium was removed and replaced with fresh medium with the same odorant concentrations and, in addition, puromycin to reach a final concentration of 0.015-16 μg/ml in 11 twofold dilution steps (day 1 of selection). On day 2 and 3, 100 μl of the medium was again removed and replaced with fresh medium with the same concentration of odorant and puromycin. On day 4 of the selection, medium from each well was removed completely, 100 ul PrestoBlue® cell viability reagent (ThermoFisher Scientific, Catalog No: 14200-083) diluted in phosphate buffered saline was added to each well and cells were incubated at 37° C. until a color change was visible in the wells containing no puromycin. The fluorescence was determined at 560 excitation and 590 nm emission to assess relative cell metabolic activity, which is the net result of cell growth and cell killing in presence of the different puromycin concentrations. The result was expressed as % viability relative to controls with no cells (0%) and cells treated with olfactory ligand only (100%).

The target of the next test is T2, OR5AN1 (Homo sapiens, UniProt Q8NGI8).
T2 construct: expressed in transfected cells
T2 sequence (Q8NGI8 1-311): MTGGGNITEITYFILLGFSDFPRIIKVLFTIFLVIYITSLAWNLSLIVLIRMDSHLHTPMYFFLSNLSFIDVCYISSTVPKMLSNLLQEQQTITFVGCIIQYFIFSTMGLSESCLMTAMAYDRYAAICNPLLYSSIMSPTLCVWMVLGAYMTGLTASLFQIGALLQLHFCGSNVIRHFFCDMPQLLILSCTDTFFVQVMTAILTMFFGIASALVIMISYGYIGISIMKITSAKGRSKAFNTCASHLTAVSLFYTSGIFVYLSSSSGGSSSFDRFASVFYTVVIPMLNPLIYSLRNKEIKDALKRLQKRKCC
The test can be described thus: Ligand-induced OR-dependent puromycin resistance, OR5AN1 cells. As to conditions: HEK293T, pGL4.29-CRE-Puro-Hygro-OR with OR5AN1; musk ketone 10 μM, eugenol or isoeugenol 1 μM, ultravanil 100 μM; puromycin 0.015-16 μg/ml; PrestoBlue viability day 4. The protocol: as §1

A further test deals with T3, OR10G9 (Homo sapiens, UniProt Q8NGN4).
T3 construct: expressed in transfected cells
T3 sequence (Q8NGN4 1-311): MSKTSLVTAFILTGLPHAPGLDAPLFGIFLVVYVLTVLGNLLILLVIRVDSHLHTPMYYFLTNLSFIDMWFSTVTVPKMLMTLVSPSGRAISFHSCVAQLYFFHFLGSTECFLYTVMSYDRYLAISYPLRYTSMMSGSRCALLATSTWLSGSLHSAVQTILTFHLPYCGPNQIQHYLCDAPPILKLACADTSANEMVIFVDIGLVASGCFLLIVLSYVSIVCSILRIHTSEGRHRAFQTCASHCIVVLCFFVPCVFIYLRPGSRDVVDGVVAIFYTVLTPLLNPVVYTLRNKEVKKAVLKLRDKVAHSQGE
In words: Ligand-induced OR-dependent puromycin resistance, OR10G9 cells. As to conditions: HEK293T, pGL4.29-CRE-Puro-Hygro-OR with OR10G9; musk ketone 10 μM, eugenol or isoeugenol 1 μM, ultravanil or vanitrope 100 μM; puromycin 0.015-16 μg/ml; PrestoBlue viability day 4. The protocol:
as §1

For the compound `CC(=O)c1c(C)c([N+](=O)[O-])c(C(C)(C)C)c([N+](=O)[O-])c1C` [musk ketone], the “puromycin resistance in presence of odorant versus solvent control” value on OR10G7 is listed as “does not increase resistance over solvent control; also recorded: no induced puromycin resistance over solvent control”; at OR5AN1 it was “increased resistance to puromycin; also recorded: enhanced puromycin resistance”; on OR10G9, “no increased resistance”.

In the case of `C=CCc1ccc(O)c(OC)c1` [eugenol], the “puromycin resistance in presence of odorant versus solvent control” value at OR10G7 is “increased resistance to puromycin; also recorded: strongly enhanced puromycin resistance”; at OR5AN1 it was “do not increase resistance over solvent control; also recorded: the resistance was equal to the solvent control”; on OR10G9, “no increased resistance”.
